Test results from patent EP0369035A1, “AGENT FOR TREATING PANCREATITIS OR THE LIKE” (priority 1988, dated 1989).

Columns and labels:
human plasmin [1] = biological target: T1, human plasmin (Homo sapiens, UniProt P00747); assay: Anti-plasmin activity: inhibition of S-2251 degradation; format: biochemical; details: substrate S-2251, 37°C, pH7.4; read-out: Plasmin S-2251 (I50)
T1 construct: 50 µl of 0.2 casein units/ml of human plasmin
Procedure: ii) Assay method of inhibition of S-2251 degradation
The test substance was dissolved in a 0.05 M Tris-HC1 (pH7.4) buffer to make a total volume of 400 µl, and 50 µl of a 3 mM S-2251 solution was added to the solution. The mixture was incubated at 37°C for 5 minutes in an incubator, and after the addition of 50 µl of 0.2 casein units/ml of human plasmin, and incubation at 37°C for 4 minutes, the reaction was terminated by an addition of 50 µl of 50% acetic acid.

human plasmin [2] = biological target: T1, human plasmin; assay: Anti-plasmin activity: inhibition of fibrinolysis (fibrin clot lysis time); format: biochemical; details: concentration giving a fibrin clot lysis time twice that of control, 37°C, pH7.4; read-out: Plasmin Fibrin (I50)
human plasma kallikrein = biological target: T2, human plasma kallikrein (Homo sapiens, UniProt P03952); assay: Anti-plasma kallikrein activity: inhibition of S-2302 degradation; format: biochemical; details: substrate S-2302, 37°C, pH 7.8; read-out: Plasma kallikrein S-2302 (I50)
T2 construct: 50 µl of 0.12 units/ml human plasma kallikrein solution
Procedure: 2) Assay of anti-plasma kallikrein activity Assay method of inhibition of S-2302 degradation
(§1) The test substance was dissolved in a 0.05 M Tris-HC1 (pH 7.8) buffer to make a total volume of 400 µl, and 50 µl of a 2 mM S-2302 solution was added to the solution. After incubation at 37°C for 5 minutes in an incubator, an addition of 50 µl of 0.12 units/ml human plasma kallikrein solution, and incubation at 37°C for 5 minutes, the reaction was terminated by an addition of 50 µl of 50% acetic acid.

human urokinase = human urokinase (Homo sapiens, UniProt P00749); assay: Anti-urokinase activity: inhibition of S-2444 degradation; format: biochemical; details: substrate S-2444, 37°C, pH 8.8; read-out: Urokinase S-2444 (I50)
Procedure: 3) Assay of anti-urokinase activity Assay method of inhibition of S-2444 degradation
as §1, with “8.8)” for “7.8)”, “1” for “2”, “S-2444” for “S-2302”, “mixture.” for “solution.”, “500” for “0.12”, “urokinase” for “plasma kallikrein”

[3] = test system: experimental pancreatitis; assay: Effect on experimental pancreatitis (sodium taurochorate + trypsin into the common bile duct), survival ratio; format: in vivo, SD-rats; set-up: Effect on experimental pancreatitis (100 mg/kg p.o.) After 24 hours / Effect on experimental pancreatitis (100 mg/kg p.o.) After 48 hours / Effect of existing control drug on experimental pancreatitis After 24 hours: unit not given here; details: rat; for Effect on experimental pancreatitis Survival ratio(%) After 24 hours / Effect on experimental pancreatitis Survival ratio(%) After 48 hours: 80 μg/kg/min. x 80 min. continuous infusion
Excerpt: [II] Effect on experimental pancreatitis
SD-rats, body weight of about 200 g were, starved overnight, and 10 to 24 animals were used in one group. Sodium pentobarbital was intraperioneally administered to anesthetize each rat, and then a cannula was inserted to the femoral vein for the administration of the test substance. After abdominal surgery, the bile duct was blocked at a part thereof proximate to the liver, by a clip, a polyethylene tube was inserted to the common bile duct at a part thereof most proximate to the duodenum, and 0.1 ml of solution containing 2 mg sodium taurochorate and 1000 U trypsin dissolved in physiological saline was injected retrogrodely. After removal of the clip and tube, the common bile duct was ligated and the abdomen was closed. Note, the test substance was dissolved in an injective 5% glucose solution, and in the case of a continuous infusion, the solution was administered over 80 minutes starting from 10 minutes before the generation of pancreatitis. In the case of oral administration, the test substance was administered through an oral catheter 30 minutes before the generation of pancreatitis. After 24 hours and 48 hours from the generation of pancreatitis, the survival ratio of the animals was calculated and compared with a control group.

experimental DIC = assay: Effect on experimental DIC and MOF (endotoxin-induced); format: in vivo, SD-rats; details: rat, 4 hours after endotoxin 10 mg/kg; for CPK: Table 5-1
Procedure: [III] Effect on experimental DIC
SD-rats, body weight of about 200 g, were starved overnight. Sodium pentobarbital was intraperioneally administered to anesthetize a rat, and then a cannula was inserted to the femoral vein, and the test substance dissolved in an injective 5% glucose solution was continually infused. Then, 10 minutes from the start of the injection, endotoxin (E. coli 0127:B8, Difco, U.S.) dissolved in physiological saline was injected through the tail vein to an amount of 10 mg/kg body weight, and 4 hours from the administration of endotoxin, the abdomen was opened, blood was obtained from the abdominal aorta, and platelets (Plt), fibrinogen (Fbg), fibrin degradation product (FDP), glutamic oxaloacetic transamirase (GOT), creatinine phosphokinase (CPK), and blood urin nitrogen (BUN) were measured.

experimental shock = assay: Effect on experimental shock (endotoxin-induced), survival ratio; format: in vivo, ICR-mice; details: dose of 30 mg/kg intraperitoneally 15 minutes before endotoxin 40 mg/kg, mouse
Procedure: [IV] Effect on experimental shock
ICR-mice, body weight of about 25 g, were starved overnight. The test substance was dissolved in an injective 5% glucose solution and intraperioneally administered, and 15 minutes later, endotoxin (E. coli 0127:B8, Difco, U.S.) dissolved in a physiological saline was intraperioneally administered to an amount of 40 mg/kg body weight.

in vivo = details: mouse, intravenous, ICR male mice, up-and-down method, read-out: Acute toxicity (LD50)
Procedure: ICR male mice 5 to 10 weeks old were used. The test substance was dissolved in a 5% dimethylsulfoxide aqueous solution, and the solution was intravenously administered in an amount of 0.1 to 0.2 ml/10 g body weight. An LD50 value was calculated by up-and-down method.

[4] = Measurement of half life in blood; format: in vivo; details: rat, iv; administered to the tail vein, SD-rats, plasma, HPLC
Procedure: [VI] Measurement of half life in blood
SD-rats 6 to 7 weeks old were used. The test substance was dissolved in an injective 5% glucose solution and administered to the tail vein. After the administration, blood samples were periodically obtained from the great vein and placed into heparinized test tubes. Plasma was separated by centrifugation and the test substance was extracted with ethyl acetate. After removal of the solvent, the residue was dissolved in 200 µl of methanol, and analyzed by high performance liquid chromatography. From the change of the concentration of the test substance in blood with time, a half life thereof in blood was calculated.

bovine factor Xa = biological target: T3, bovine factor Xa (Bos taurus, UniProt P00743); assay: Anti-FXa activity: inhibition of S-2222 degradation; format: biochemical; details: substrate S-2222, 37°C, pH 8.3; read-out: FXa S-2222 (I50)
T3 construct: 0.05 ml of 0.3 vial/ml bovine factor Xa
Procedure: 4) Assay of anti-FXa activity Assay method of inhibition of S-2222 degradation
To 0.4 ml of the test substance dissolved in a 0.05 M Tris-HC1 (pH 8.3) buffer is added 0.05 ml of 3 mM S-2222 solution, and after incubation at 37°C for about 4 minutes, an addition of 0.05 ml of 0.3 vial/ml bovine factor Xa, and a reaction at 37°C for 4 minutes, the - reaction was terminated by adding 0.05 ml of 50% acetic acid.

T1 sequence (P00747 581-810 limits assumed): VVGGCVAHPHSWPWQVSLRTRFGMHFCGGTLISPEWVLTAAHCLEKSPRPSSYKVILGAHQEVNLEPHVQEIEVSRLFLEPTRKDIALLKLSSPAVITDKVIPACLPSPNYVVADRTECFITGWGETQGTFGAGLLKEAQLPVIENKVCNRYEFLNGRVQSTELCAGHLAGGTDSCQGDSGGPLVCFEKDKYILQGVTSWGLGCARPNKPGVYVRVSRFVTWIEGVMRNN
T1 sequence (P00747 97-580 partner limits assumed): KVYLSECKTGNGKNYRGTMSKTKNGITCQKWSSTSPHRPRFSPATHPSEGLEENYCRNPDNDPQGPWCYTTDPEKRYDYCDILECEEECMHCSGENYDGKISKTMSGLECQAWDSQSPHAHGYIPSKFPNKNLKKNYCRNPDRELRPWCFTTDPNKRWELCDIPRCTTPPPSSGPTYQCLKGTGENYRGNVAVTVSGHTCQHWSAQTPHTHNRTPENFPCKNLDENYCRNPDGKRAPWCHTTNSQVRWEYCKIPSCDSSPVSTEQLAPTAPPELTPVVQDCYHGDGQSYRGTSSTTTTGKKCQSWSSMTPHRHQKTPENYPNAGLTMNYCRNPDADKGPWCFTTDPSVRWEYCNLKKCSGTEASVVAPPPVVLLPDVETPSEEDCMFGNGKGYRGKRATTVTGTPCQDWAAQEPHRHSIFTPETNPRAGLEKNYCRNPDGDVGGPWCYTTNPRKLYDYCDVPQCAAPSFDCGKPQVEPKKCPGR
T2 sequence (P03952 391-638 limits assumed): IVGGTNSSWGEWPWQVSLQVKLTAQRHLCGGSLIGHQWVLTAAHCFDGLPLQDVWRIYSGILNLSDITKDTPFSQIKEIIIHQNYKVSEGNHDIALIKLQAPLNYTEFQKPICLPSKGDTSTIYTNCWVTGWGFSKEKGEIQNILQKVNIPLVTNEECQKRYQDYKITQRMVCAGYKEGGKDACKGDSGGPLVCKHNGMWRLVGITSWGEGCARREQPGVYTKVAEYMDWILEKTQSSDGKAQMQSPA
T2 sequence (P03952 20-390 partner limits assumed): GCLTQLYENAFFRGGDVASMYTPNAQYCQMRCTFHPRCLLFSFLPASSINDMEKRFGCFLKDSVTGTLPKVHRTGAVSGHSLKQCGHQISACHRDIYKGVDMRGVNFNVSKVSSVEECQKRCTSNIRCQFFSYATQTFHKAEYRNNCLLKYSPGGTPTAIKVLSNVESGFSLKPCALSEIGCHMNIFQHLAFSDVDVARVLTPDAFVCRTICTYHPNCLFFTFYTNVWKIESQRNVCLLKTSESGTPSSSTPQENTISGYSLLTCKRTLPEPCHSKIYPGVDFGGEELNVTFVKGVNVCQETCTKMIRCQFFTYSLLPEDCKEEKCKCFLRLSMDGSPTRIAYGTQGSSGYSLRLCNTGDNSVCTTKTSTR
T3 sequence (P00743 234-492 limits assumed): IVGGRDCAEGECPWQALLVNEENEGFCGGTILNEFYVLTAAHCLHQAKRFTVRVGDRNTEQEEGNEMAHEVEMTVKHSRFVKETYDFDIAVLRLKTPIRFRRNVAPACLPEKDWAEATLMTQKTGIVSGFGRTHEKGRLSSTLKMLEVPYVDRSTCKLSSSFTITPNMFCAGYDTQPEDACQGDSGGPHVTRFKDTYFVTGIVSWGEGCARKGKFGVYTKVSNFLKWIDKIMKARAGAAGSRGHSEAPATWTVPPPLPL
T3 sequence (P00743 41-180 partner limits assumed): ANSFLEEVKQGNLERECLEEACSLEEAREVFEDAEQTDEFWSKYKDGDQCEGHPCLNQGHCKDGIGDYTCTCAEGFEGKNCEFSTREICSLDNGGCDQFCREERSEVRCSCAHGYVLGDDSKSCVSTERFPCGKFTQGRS

Structure (SMILES)	IC50 (human plasmin [1]) [nM]	IC50 (human plasmin [2]) [nM]	IC50 (human plasma kallikrein) [nM]	IC50 (human urokinase) [nM]	Effect on experimental pancreatitis Survival ratio(%) After 24 hours ([3]; after 24 hours) [%]	Effect on experimental pancreatitis Survival ratio(%) After 48 hours ([3]; after 48 hours) [%]	BUN (experimental DIC; Dose 10 μg/kg/min infusion) [mg/dL]	FDP (experimental DIC; Dose 10 μg/kg/min infusion) [µg/mL]	Fbg (experimental DIC; Dose 10 μg/kg/min infusion) [mg/dL]	GOT (experimental DIC; Dose 10 μg/kg/min infusion) [U/ml]	Plat (experimental DIC; Dose 10 μg/kg/min infusion)	Effect on experimental shock (Survival ratio (%) after 24 hours) (experimental shock) [%]	LD50 (in vivo) [mg/kg]	half-life [4] [min]	IC50 (bovine factor Xa) [nM]	CPK (experimental DIC; Dose 10 μg/kg/min infusion) [U/1]	other results
NC[C@H]1CC[C@H](C(=O)N[C@@H](Cc2ccc(OCc3ccccc3)cc2)C(=O)Nc2cccnc2)CC1 [Compound 1]	6100	2900	1700	45000	55.5	29.1	28 ± 3	16 to 32	146 ± 7	299 ± 63	65 ± 6 x 10^4/μl	82	70	15.3			
CC(=O)c1ccc(NC(=O)[C@H](Cc2ccc(OCc3cccc(Cl)c3)cc2)NC(=O)[C@H]2CC[C@H](CN)CC2)cc1 [Compound 3]	800	100	380	40000			40 ± 5	8 to 64	160 ± 13	133 ± 4	78 ± 7 x 10^4/μl	67	> 100		35000	14 ± 2	
CC(=O)c1ccc(NC(=O)[C@H](Cc2ccc(OCc3ccccn3)cc2)NC(=O)[C@H]2CC[C@H](CN)CC2)cc1 [Compound 6]	2700	1400	2000	75000	62.5	54.1	26 ± 2	8 to 32	179 ± 15	196 ± 28	95 ± 14 x 10^4/μl	70	85	12.2	160000	22 ± 6	Effect on experimental pancreatitis (100 mg/kg p.o.) After 24 hours ([3]; survival ratio, 100 mg/kg p.o. 30 minutes before pancreatitis, after 24 hours): 66.7; Effect on experimental pancreatitis (100 mg/kg p.o.) After 48 hours ([3]; survival ratio, 100 mg/kg p.o. 30 minutes before pancreatitis, after 48 hours): 53.3; BUN (experimental DIC; Dose 1 μg/kg/min infusion): 36 ± 2 mg/dL; FDP (experimental DIC; Dose 1 μg/kg/min infusion): 32 to 65 µg/mL; Fbg (experimental DIC; Dose 1 μg/kg/min infusion): 140 ± 18 mg/dL; GOT (experimental DIC; Dose 1 μg/kg/min infusion): 217 ± 29 U/ml; Plat (experimental DIC; Dose 1 μg/kg/min infusion): 68 ± 11 x 10^4/μl
